# Literature values as cited in paper PMC9851200, “Multiparameter phenotypic screening for endogenous TFEB and TFE3 translocation identifies novel chemical series modulating lysosome function” (Autophagy, 2022).
# Experiments:
# Parameters in all cases: method as in original PKIS2 published data
# [1] = target: T1, kinases (KINOMEscan panel) (Homo sapiens, UniProt O15075); settings: Published KINOMEscan; ref original PKIS2 published data; cited from earlier work
# T1 sequence (O15075 1-740): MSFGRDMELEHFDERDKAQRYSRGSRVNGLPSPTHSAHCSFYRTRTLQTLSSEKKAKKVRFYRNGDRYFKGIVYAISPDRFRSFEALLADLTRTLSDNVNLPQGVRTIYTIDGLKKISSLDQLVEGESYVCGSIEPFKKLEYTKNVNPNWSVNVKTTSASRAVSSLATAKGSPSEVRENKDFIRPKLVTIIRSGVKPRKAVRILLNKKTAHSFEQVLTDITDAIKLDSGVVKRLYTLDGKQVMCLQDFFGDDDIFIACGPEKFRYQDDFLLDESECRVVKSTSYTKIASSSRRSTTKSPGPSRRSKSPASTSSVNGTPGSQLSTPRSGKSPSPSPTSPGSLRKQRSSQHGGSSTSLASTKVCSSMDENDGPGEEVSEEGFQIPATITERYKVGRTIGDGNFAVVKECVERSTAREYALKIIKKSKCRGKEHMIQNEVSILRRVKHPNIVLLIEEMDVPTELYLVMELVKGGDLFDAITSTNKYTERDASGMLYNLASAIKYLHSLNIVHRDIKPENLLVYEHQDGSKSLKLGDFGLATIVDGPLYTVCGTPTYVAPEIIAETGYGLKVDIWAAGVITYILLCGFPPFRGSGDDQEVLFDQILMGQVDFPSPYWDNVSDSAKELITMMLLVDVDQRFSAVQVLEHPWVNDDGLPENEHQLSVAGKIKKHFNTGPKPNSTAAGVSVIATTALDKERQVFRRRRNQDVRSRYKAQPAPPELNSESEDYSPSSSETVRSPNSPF
# [2] = target: kinases (KINOMEscan panel) (Homo sapiens, UniProt P29597); settings: Published KINOMEscan, ref original PKIS2 published data, cited from earlier work
# [3] = target: T2, kinases (KINOMEscan panel) (Homo sapiens, UniProt P51955); settings: kinase NEK2; Published KINOMEscan; ref original PKIS2 published data; cited from earlier work
# T2 sequence (P51955 1-445): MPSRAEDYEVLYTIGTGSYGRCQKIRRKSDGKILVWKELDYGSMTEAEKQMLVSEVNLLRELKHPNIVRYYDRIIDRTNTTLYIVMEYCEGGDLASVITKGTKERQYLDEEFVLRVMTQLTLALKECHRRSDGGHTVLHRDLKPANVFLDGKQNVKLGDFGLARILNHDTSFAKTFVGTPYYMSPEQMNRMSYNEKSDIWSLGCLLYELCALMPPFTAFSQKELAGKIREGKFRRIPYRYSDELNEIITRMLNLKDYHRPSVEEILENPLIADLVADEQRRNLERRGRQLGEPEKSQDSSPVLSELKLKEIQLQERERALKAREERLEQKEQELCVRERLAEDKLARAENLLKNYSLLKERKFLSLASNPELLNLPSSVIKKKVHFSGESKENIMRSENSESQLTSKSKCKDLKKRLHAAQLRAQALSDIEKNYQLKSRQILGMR
# [4] = target: kinases (KINOMEscan panel) (Homo sapiens, UniProt Q86UE8); settings: kinase TLK2; Published KINOMEscan; ref original PKIS2 published data; cited from earlier work
# [5] = target: T3, kinases (KINOMEscan panel) (Homo sapiens, UniProt Q92630); settings: DYRK2; Published KINOMEscan; ref original PKIS2 published data; cited from earlier work
# T3 sequence (Q92630 1-601): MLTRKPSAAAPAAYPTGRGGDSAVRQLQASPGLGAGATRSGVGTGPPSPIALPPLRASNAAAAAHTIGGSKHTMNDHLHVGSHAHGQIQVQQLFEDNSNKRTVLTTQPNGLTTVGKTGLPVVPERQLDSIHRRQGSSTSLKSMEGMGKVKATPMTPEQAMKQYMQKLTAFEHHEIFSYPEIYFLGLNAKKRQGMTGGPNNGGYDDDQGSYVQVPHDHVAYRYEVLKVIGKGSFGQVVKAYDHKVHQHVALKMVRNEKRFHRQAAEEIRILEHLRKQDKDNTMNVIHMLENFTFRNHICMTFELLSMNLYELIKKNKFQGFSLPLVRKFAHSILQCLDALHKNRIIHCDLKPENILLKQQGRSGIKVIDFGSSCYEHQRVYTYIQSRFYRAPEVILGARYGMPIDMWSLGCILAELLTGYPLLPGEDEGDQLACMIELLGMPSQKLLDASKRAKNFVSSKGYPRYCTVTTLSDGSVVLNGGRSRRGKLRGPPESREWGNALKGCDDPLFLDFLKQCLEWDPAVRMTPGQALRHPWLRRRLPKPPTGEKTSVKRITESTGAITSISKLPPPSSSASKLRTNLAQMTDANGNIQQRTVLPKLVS
# [6] = target: T4, kinases (KINOMEscan panel) (Homo sapiens, UniProt Q96D53); settings: kinase COQ8B; Published KINOMEscan; ref original PKIS2 published data; cited from earlier work
# T4 sequence (Q96D53 1-544): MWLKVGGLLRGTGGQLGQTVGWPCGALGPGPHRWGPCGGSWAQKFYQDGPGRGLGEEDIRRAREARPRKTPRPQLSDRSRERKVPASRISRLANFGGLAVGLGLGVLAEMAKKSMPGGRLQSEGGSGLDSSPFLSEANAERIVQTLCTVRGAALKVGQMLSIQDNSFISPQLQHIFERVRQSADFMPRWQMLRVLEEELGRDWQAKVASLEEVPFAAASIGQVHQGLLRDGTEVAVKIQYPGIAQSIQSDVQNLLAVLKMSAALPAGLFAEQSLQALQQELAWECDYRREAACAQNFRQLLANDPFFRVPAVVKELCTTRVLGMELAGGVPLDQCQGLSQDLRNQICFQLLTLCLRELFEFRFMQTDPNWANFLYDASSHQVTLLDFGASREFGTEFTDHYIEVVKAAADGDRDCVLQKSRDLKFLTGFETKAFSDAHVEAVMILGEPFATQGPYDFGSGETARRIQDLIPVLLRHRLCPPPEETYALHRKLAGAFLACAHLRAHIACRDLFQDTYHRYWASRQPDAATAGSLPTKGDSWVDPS
# kinases (KINOMEscan panel) (Homo sapiens, UniProt P29597), sequence (P29597 whole entry): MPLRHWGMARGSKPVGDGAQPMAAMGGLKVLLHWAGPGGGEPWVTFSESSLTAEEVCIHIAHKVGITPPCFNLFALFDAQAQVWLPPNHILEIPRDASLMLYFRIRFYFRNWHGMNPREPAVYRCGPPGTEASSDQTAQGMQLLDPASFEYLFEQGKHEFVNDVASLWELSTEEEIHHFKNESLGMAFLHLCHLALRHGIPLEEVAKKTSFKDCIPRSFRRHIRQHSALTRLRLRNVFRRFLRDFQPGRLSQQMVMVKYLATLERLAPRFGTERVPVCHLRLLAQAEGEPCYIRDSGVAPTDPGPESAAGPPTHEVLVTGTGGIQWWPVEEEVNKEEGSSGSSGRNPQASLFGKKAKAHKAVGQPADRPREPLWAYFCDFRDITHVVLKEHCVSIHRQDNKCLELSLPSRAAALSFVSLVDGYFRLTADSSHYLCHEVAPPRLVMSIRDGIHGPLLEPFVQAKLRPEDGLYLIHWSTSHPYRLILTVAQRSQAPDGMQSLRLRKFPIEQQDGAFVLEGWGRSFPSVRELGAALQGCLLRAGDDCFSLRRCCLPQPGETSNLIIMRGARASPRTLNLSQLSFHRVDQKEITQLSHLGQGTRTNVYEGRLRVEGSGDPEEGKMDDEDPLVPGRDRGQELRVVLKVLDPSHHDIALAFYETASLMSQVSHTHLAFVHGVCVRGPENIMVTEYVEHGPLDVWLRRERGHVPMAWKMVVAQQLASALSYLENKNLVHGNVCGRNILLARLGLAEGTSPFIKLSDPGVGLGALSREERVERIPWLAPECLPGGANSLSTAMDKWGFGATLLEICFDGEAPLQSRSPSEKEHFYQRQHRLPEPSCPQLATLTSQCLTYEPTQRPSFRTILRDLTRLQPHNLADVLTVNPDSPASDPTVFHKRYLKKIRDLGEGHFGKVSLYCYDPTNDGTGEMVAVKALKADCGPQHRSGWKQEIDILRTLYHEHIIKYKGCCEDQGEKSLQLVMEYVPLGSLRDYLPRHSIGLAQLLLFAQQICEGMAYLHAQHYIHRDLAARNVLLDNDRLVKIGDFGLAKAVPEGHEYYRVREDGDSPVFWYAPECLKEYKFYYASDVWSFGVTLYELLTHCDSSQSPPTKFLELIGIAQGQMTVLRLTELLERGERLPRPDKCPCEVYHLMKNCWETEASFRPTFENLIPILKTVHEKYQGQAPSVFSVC
# kinases (KINOMEscan panel) (Homo sapiens, UniProt Q86UE8), sequence (Q86UE8 whole entry): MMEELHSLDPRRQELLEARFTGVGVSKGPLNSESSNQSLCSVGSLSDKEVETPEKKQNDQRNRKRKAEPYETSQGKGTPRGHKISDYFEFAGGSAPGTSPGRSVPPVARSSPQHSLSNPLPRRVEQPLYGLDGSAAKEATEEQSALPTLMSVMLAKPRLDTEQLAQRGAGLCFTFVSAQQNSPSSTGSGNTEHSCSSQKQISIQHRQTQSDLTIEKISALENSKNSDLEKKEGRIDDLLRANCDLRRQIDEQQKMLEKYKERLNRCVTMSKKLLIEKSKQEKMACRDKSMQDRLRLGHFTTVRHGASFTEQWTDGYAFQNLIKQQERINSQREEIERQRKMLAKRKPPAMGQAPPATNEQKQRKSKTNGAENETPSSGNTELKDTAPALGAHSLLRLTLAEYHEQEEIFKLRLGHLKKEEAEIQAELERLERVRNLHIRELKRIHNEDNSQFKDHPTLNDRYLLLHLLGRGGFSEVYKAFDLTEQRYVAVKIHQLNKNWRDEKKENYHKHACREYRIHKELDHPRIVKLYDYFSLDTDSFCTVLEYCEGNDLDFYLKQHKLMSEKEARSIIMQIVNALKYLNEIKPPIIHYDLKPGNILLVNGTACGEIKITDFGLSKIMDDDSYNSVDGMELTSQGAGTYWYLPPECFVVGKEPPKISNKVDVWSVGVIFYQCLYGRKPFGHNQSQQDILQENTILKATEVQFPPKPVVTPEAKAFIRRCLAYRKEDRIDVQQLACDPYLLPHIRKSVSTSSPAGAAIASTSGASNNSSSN
smiles,measurement,setting,value
Cc1cccc(-c2nc(Nc3ccncc3)c3ccccc3n2)n1 [NK215],KINOMEscan DCLK1,[1],14
same,KINOMEscan TYK2(JH2domain-pseudokinase),[2]; TYK2(JH2domain-pseudokinase),40
same,KINOMEscan TYK2(JH1domain-catalytic),[2]; kinase TYK2(JH1domain-catalytic),8
same,KINOMEscan NEK2,[3],0
same,KINOMEscan TLK2,[4],0
same,KINOMEscan DYRK2,[5],0
same,KINOMEscan COQ8B,[6],0
